A word on the inhibition: it is the drop in the measured response relative to a control, in per cent.

Where two headings read alike, the source gives them in different places.

Data set [1] addresses TTR (transthyretin) (Homo sapiens, UniProt P02766). Put plainly: percent inhibition of radiolabelled T4 binding to TTR (procedure of R. Somack et al.). Particulars: for inhibition at 10 µM: read-out: ~% T4 (percent inhibition of radiolabelled T4 binding to TTR); for inhibition at 1 µM: [I] 1 uM. The text has this: Results are set forth in the following table, wherein "%T4 " represents the percent inhibition of radiolabelled T4 binding to TTR".

For data set [2] the following is noted: cited from earlier work.
Data set [3] relates to human astrocytoma cells. Particulars: C. M. Divino et al. 1990; cited from earlier work.

For the molecule `CC(C)(C)OC(=O)NCCCCCCNC(=O)Cc1cc(I)c(O)c(I)c1`, the inhibition at 10 µM in data set [1] ([I] 10 uM) was about 40%. Consider `NCCOCCOCCNC(=O)Cc1cc(I)c(O)c(I)c1`, for which the inhibition at 10 µM in data set [1] ([I] 10 uM) was about 25%.

As to `NCCCCCCNC(=O)Cc1cc(I)c(O)c(I)c1`, the inhibition at 10 µM in data set [1] ([I] 10 uM) was about 15%. Molecule `O=C(O)c1ccc(-c2cc(I)c(O)c(I)c2)cc1` gave an inhibition at 1 µM in data set [1] of about 80%. Molecule `OCc1cc(I)c(O)c(I)c1` showed an inhibition at 1 µM in data set [1] of about 70%. Consider `Oc1c(I)cc(I)cc1I`, for which the inhibition at 10 µM in data set [1] was about 90%.

`O=C(O)Cc1cc(I)c(Oc2cc(I)c(O)c(I)c2)c(I)c1`: the inhibition at 10 µM in data set [1] ([I] 10 uM) was about 90%. With `O=C(Cc1cc(I)c(O)c(I)c1)OCC#CCO`, the inhibition at 10 µM in data set [1] ([I] 10 uM) is about 90%. As to `OCCc1cc(I)c(O)c(I)c1`, the inhibition at 10 µM in data set [1] ([I] 10 uM) is about 85%.

For the molecule `O=C(O)CCc1cc(I)c(O)c(I)c1`, the inhibition at 10 µM in data set [1] ([I] 10 uM) is about 80%. For `O=C(O)Cc1cc(I)c(O)c(I)c1`, the inhibition at 10 µM in data set [1] ([I] 10 uM) was about 70%. Still for that read-out and setting: the result for `CC(C)(C)OC(=O)NCCOCCOCCNC(=O)Cc1cc(I)c(O)c(I)c1` reads about 45%. On to superoxide dismutase, for which, in data set [2] (unconjugated, G. D. Mao et al. 1989), the half-life result is “five”. As for transthyretin, the t1/2 entry in data set [2] (up to about) is given as “up to two”. In data set [3], the “binding to cell sites” value was “binds to specific high affinity sites on human astrocytoma cells”.

Values taken from patent US5714142A, “Method and compositions for increasing the serum half-life of pharmacologically active agents by binding to transthyretin-selective ligands” (priority 1996, dated 1998).
